Experiment [1] concerns SKOV-3 (DSMZ ATCC HTB 77) cells. The experiment can be described thus: cells. The conditions noted are these: growth inhibition, 5 days of incubation, MTT assay; read-out: IC50 [nM] SK-OV-3. It counts as cell-based. As for the experimental part: (§1) 60 μL of serial dilutions of the test compound were given to 120 μL of suspended cells (50.000/mL) in wells of 96-well plates. After 5 days of incubation growth inhibition (IC50) was determined using an MTT assay.^[64]
For orientation: Tetrazolium dyes change colour on reduction, which living cells bring about.

Experiment [2] concerns A549 (DSMZ ACC 107) cells. Briefly: cells. Format: cell-based. To be noted: growth inhibition, 5 days of incubation, MTT assay; read-out: IC50 [nM] A-549. As for the experimental part:
as §1

Experiment [3] concerns MCF-7 (DSMZ ACC 115) cells. The experiment can be described thus: cells. It counts as cell-based. The conditions noted are these: growth inhibition, 5 days of incubation, MTT assay; read-out: IC50 [nM] MCF-7. Here is the method:
as §1

In another experiment the test system is L-929 (DSMZ ACC 2) cells. The experiment can be described thus: Cell proliferation assay (MTT), L-929. It counts as cell-based. To be noted: growth inhibition, 5 days of incubation, MTT assay; read-out: IC50 [nM] L-929. Here is the method: as §1
In the next experiment the target is T1, CRM1 (Homo sapiens, UniProt O14980).
T1 construct: HeLa cells stably expressing a fluorescent translocation biosensor (HeLaRevBio); endogenous in cells; host or cells: HeLa (HeLaRevBio in A7; HeLa in A8)
The experiment can be described thus: Monitoring export inhibitory activity (translocation biosensor, HeLaRevBio cells). Format: cell-based. The gist of the method: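 HeLa cells stably expressing an NLS-GST-GFP-RevNES shuttle biosensor were treated with compound for 1 h, then fixed and Hoechst-stained. GFP intensity in nuclear and cytoplasmic regions was quantified by high-content imaging, and the inner-minus-outer mean intensity difference was the readout. IC50 came from four-parameter logistic fit; single-point testing used 125 nM final.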

Experiment [4] deals with KB 3.1 (DSMZ ACC 158) cells. To be noted: read-out: IC50 [nM] KB-3.1; growth inhibition, 5 days of incubation, MTT assay.
Experiment [5] concerns the target T2, nuclear export receptor Crm1 (Homo sapiens, UniProt O14980).
T2 construct: HeLa cells stably expressing a fluorescent translocation biosensor (HeLaRevBio); endogenous in cells; host or cells: HeLa (HeLaRevBio in A7; HeLa in A8)
Briefly: Pull-down with ratjadone-biotin, LC-MS proteomic target identification. It counts as binding. To be noted: HeLa cells, 0.1 μg/ml, 5h; streptavidin sepharose; 79 proteins identified. Here is the method:
Binding of Ratjadone to the nuclear export receptor Crm1 was shown in a chemical pull down. HeLa cells were treated with ratjadone-biotin, ratjadone or both at 0.1 μg/ml final concentration for 5h. Cells were detached by scraping, washed twice in PBS and lysed in MPER-buffer (Thermo Fisher, Waltham, USA) supplemented with complete protease inhibitor (Roche, Mannheim, Germany). After 5 min incubation on ice the lysate was centrifuged (20 min, 13000 rpm, 4° C.) and the supernatant was incubated with streptavidin sepharose high performance (GE healthcare, Freiburg, Germany) overnight at 4° C. The next day beads were washed twice with PBS and resuspended in elution buffer (Roth) and heated to 95° C. for 10 min. 5% were tested on WesternBlot with a biotin-specific antibody (see FIG. 11). The eluate was given to the proteomics platform (J. Wissing) for identification of proteins.

Here are results for two compounds from patent publication US11236059B2, “Targeted cytotoxic ratjadone derivatives and conjugates thereof” (HELMHOLTZ-ZENTRUM FUER INFEKTIONSFORSCHUNG GMBH, priority 2017, dated 2022).

For orientation: IC50 means the concentration that inhibits the measured activity by half.

Read-outs that look alike come from different tables or passages of the source.

T1 sequence (O14980 whole entry): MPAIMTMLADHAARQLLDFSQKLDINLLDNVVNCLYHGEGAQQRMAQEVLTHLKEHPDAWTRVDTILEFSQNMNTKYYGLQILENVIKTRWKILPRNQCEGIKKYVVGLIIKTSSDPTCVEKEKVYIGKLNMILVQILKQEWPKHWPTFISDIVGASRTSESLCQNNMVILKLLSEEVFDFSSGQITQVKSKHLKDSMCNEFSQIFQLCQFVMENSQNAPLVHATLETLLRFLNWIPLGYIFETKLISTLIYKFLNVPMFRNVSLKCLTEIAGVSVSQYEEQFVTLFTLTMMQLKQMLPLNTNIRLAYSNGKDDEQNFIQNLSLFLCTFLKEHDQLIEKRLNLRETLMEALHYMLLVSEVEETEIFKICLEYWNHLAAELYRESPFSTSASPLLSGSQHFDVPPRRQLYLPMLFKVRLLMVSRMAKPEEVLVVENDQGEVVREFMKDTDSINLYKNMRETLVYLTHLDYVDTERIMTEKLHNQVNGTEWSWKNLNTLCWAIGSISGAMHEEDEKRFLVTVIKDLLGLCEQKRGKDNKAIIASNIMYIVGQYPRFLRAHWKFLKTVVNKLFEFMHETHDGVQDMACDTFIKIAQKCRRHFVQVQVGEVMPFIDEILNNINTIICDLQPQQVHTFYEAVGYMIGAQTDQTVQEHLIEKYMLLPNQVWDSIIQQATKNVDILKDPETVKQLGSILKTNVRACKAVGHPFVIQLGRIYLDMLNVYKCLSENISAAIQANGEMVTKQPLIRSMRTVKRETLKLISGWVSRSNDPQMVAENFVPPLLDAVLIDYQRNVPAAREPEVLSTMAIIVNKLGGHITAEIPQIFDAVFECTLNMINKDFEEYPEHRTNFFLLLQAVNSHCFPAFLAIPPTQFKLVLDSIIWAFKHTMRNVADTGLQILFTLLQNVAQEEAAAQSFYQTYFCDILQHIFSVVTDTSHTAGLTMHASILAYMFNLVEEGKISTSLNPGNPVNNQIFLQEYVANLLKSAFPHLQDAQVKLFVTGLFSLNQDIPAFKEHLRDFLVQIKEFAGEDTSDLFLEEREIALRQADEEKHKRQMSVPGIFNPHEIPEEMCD
T2 sequence (O14980 whole entry): as above

As for `C/C=C/[C@@H]1O[C@H]([C@H](O)/C=C/C=C(\C)C[C@@H](C)/C=C(C)\C=C\[C@H]2CC=CC(=O)O2)CC(=O)[C@@H]1C` [19-Oxo-Ratjadone 9, (R)-6-((1E,3Z,5R,7E,9E,9E,11R)-11-hydroxy-3,5,7-trimethyl-11-((2S,5R,6S)-5-methyl-4-oxo-6-((E)-prop-1-en-1-yl)tetrahydro-2H-pyran-2-yl)undeca-1,3,7,9-tetraen-1-yl)-5,6-dihydro-2H-pyran-2-one], the IC50 was found to be 0.16 nM in experiment [1]; 0.1 nM in experiment [2]; 0.48 nM in experiment [3]; 24.3 nM in the experiment on L-929 (DSMZ ACC 2) cells; 13.3 nM on CRM1 (HeLa cells stably expressing translocation biosensor, 1h of incubation, read-out: IC50 [nM] CRM1 (nuclear export inhibition)); 0.36 nM in experiment [4].

As to `C/C=C/[C@@H]1O[C@H]([C@H](/C=C/C=C(\C)C[C@@H](C)/C=C(C)\C=C\[C@H]2CC=CC(=O)O2)NC(=O)OCCc2cn(CCOCCOCCOCCNC(=O)CCCC[C@@H]3SC[C@@H]4NC(=O)N[C@@H]43)nn2)C[C@@H](O)[C@@H]1C` [Biotin-PEG3-16S-Aminoratjadone, 2-(1-(13-oxo-17-((3aS,4S,6aR)-2-oxohexahydro-1H-thieno[3,4-d]imidazol-4-yl)-3,6,9-trioxa-12-azaheptadecyl)-1H-1,2,3-triazol-4-yl)ethyl ((1S,2E,4E,7R,8Z,10E)-1-((2S,4R,5S,6S)-4-hydroxy-5-methyl-6-((E)-prop-1-en-1-yl)tetrahydro-2H-pyran-2-yl)-5,7,9-trimethyl-11-((R)-6-oxo-3,6-dihydro-2H-pyran-2-yl)undeca-2,4,8,10-tetraen-1-yl)carbamate], the “proteins identified in the pull-down eluate” value in experiment [5] was “CRM1 having the highest area”. At CRM1, this compound gave an IC50 of 152 nM.
